Data: patent US6191124A, “Methanol derivatives for treatment of retroviral infections especially HIV infections” (priority 1997, dated 2001)
Where two headings read alike, the source gives them in different places. Values belong to the compound of their own block, whether it stands above or below them.

Target: HIV-1 protease (Human immunodeficiency virus type 1 group M subtype B, UniProt P04585)
Experiment: HIV protease screening assay (fluorescently labeled biotinylated substrate, streptavidin beads), percent inhibition
Format: biochemical
Protocol: The HIV protease screening assay is based on fluorescently labeled substrate which can be resolved from nonlabeled cleavage product using special beads coated with streptavidin. The substrate is biotinylated at the amino terminal arginine and fluorescently labeled with fluorescein isothiocynate (FITC) at the carboxyl terminal lysine. This assay has been employed to detect novel, nonpeptidic inhibitors of HIV-1 protease. Substrate (20 μl of 0.2 μM), sample (10 μl of desired concentration), and enzyme (10 μl of 0.1 μM) are added to a 96 well pandex plate. The assay is run in 0.1 M sodium acetate buffer at pH 5.5 in the presence of 1.0 M sodium chloride and 0.05% NP-40 with incubated in the dark for one hour at room temperature. Strepavidin coated polystyrene beads {40 μl of 0.1% (w/v)} are added and the plate is incubated in the dark for an additional half hour. The labeled cleavage product is separated from the unreacted substrate via filtration and is read on the Idexx screen machine. The data are analyzed by appropriate computer algorithms to ascertain percent inhibition values.

[1] = 1.1 μM (Table 6), read-out: PROTEASE INHIBITION
[2] = 3.3 μM (Table 6), read-out: PROTEASE INHIBITION
[3] = 10 μM (Table 2), read-out: % Protease Inhibition
[4] = 1.1 μM (Table 7), read-out: PROTEASE INHIBITION
[5] = 3.3 μM (Table 7), read-out: PROTEASE INHIBITION
[6] = 10 μM (Table 7), read-out: PROTEASE INHIBITION

Structure (SMILES): Cc1sc2ncc(C(O)/C=C/c3ccco3)n2c1C (stereo not drawn) [Example 41, α-[2-(2-Furanyl)ethenyl]2,3-dimethylimidazo[2,1-b]thiazol-3-methanol]
- inhibition at 3.3 µM (3.3 μM (Table 9), read-out: PROTEASE INHIBITION): 19%
- inhibition at 10 µM (10 μM (Table 9), read-out: PROTEASE INHIBITION): 81%

Structure (SMILES): OC(CCc1ccccc1)c1cnc2sc3cc(F)ccc3n12 (stereo not drawn) [Example 20, 7-Fluoro-α-(2-phenylethyl)imidazo[2,1-b]benzothiazole-3-methanol]
- inhibition at 3.3 µM (3.3 μM (Table 5), read-out: % HIV Protease Inhibition): 43%
- inhibition at 10 µM (10 μM (Table 5), read-out: % HIV Protease Inhibition): 88%

Structure (SMILES): Cc1csc2ncc(C(O)CCc3ccc(Br)cc3)n12 (stereo not drawn) [Example 9, 3-Methyl-α-(4-bromophenylethyl)imidazo[2,1-b]thiazole-5-methanol]
- inhibition at 10 µM [3]: 83%
- % Protease Inhibition (1.1-1.3 μM (Table 2)): < 10%
- % Protease Inhibition (3.3-3.7 μM (Table 2)): 22%

Structure (SMILES): Cc1sc2ncc(C(O)C#Cc3ccccc3)n2c1C (stereo not drawn) [Example 1, 2,3-Dimethyl-α-(2-phenylethynyl)imidazo-[2,1-b]thiazole-5-methanol]
- inhibition at 10 µM (10 μM (Table 1), read-out: % Protease Inhibition): 16%
- % Protease Inhibition (3.3-3.7 μM (Table 1)): < 10%

Structure (SMILES): Cc1sc2ncc(C(O)CCc3ccco3)n2c1C (centres unmarked) [Example 42]
- inhibition at 1.1 µM (1.1 μM (Table 8), read-out: PROTEASE INHIBITION): < 10%
- inhibition at 3.3 µM (3.3 μM (Table 8), read-out: PROTEASE INHIBITION): 46%
- inhibition at 10 µM (10 μM (Table 8), read-out: PROTEASE INHIBITION): 92%

Structure (SMILES): OC(CCc1ccccc1)c1cnc2sc3c(n12)CCC3 (stereo not drawn) [Example 13, 6,7-Dihydro-α-(2-phenylethyl)-5H-cyclopent[d]imidazo[2,1-b]thiazole-3-methanol]
- inhibition at 1.1 µM (1.1 μM (Table 4), read-out: Protease Inhibition, % Inhibition): 39%

Structure (SMILES): Cc1csc2ncc(C(O)CCCCc3ccccc3)n12 (stereo not drawn) [Example 10, 3-Methyl-α-(4-phenylbutyl)imidazo-[2,1-b]thiazole-5-methanol]
- inhibition at 10 µM [3]: 58%
- % Protease Inhibition (1.1-1.3 μM (Table 2)): < 10%
- % Protease Inhibition (3.3-3.7 μM (Table 2)): 12%

Structure (SMILES): Cc1csc2ncc(C(O)CCc3ccccc3)n12 (stereo not drawn) [Example 8, 3-Methyl-α-(2-phenylethyl)imidazo[2,1-b]thiazole-5-methanol]
- inhibition at 10 µM [3]: 79%
- % Protease Inhibition (1.1-1.3 μM (Table 2)): < 10%
- % Protease Inhibition (3.3-3.7 μM (Table 2)): 32%

Second part, the compound after the results:

- inhibition at 1.1 µM [1]: 64%
- inhibition at 3.3 µM [2]: 88%
Structure (SMILES): OC(CCc1cc(F)cc(F)c1)c1cnc2sc3c(n12)CCCCC3 (stereo not drawn) [Example 28, α-[2-(3,5-Difluorophenyl)ethyl]-1-6,7,8,9-tetrahydro-5H-cyclohept[d]-imidazothiazol-3-methanol]

- inhibition at 1.1 µM [4]: 15%
- inhibition at 3.3 µM [5]: 52%
- inhibition at 10 µM [6]: 42%
Structure (SMILES): COc1ccc(/C=C/C(O)c2cnc3sc4c(n23)CCCCC4)cc1 (stereo not drawn) [Example 36, α-[2-(4-Methoxyphenyl)ethenyl]-6,7,8,9-tetrahydro-5H-cyclohept-[d]imidazo[2,1-b]thiazol-3-methanol]

- inhibition at 1.1 µM [4]: 23%
- inhibition at 3.3 µM [5]: 33%
- inhibition at 10 µM [6]: 21%
Structure (SMILES): OC(/C=C/c1ccc(F)cc1)c1cnc2sc3c(n12)CCCCC3 (stereo not drawn) [Example 25, α-[2-(4-Fluorophenyl)ethenyl]-6,7,8,9-tetrahydro-5H-cyclohept[d]imidazo[2,1-b]thiazol-3-methanol]

- inhibition at 1.1 µM [1]: 53%
- inhibition at 3.3 µM [2]: 77%
Structure (SMILES): OC(CCc1ccc(F)cc1)c1cnc2sc3c(n12)CCCCC3 (stereo not drawn) [Example 24, α-[2-(4-Fluorophenyl)ethyl]-6,7,8,9-tetrahydro-5H-cyclohept[d]imidazo[2,1-b]thiazol-3-methanol]

- inhibition at 1.1 µM [1]: 35%
- inhibition at 3.3 µM [2]: 64%
Structure (SMILES): OC(CCc1cccc(F)c1)c1cnc2sc3c(n12)CCCCC3 (stereo not drawn) [Example 23, α-[2-(3-Fluorophenyl)ethyl]-6,7,8,9-tetrahydro-5H-cyclohept[d]imidazo[2,1-b]thiazol-3-methanol]

- inhibition at 3.3 µM [5]: < 10%
- inhibition at 10 µM [6]: 24%
Structure (SMILES): CN(C)c1ccc(/C=C/C(O)c2cnc3sc4c(n23)CCCCC4)cc1 (stereo not drawn) [Example 30, α-[2-(4-Dimethylaminophenyl)ethenyl]-6,7,8,9-tetrahydro-5H-cyclohept[d]-imidazo[2,1-b]thiazol-3-methanol]

- inhibition at 1.1 µM [1]: 63%
- inhibition at 3.3 µM [2]: 81%
Structure (SMILES): COc1ccc(CCC(O)c2cnc3sc4c(n23)CCCCC4)cc1 (stereo not drawn) [Example 35, α-[2-(4-methoxyphenyl)ethyl]-6,7,8,9-tetrahydro-5H-cyclohept-[d]imidazo[2,1-b]thiazol-3-methanol]
